The nature of one data set: in vivo. To be noted: for concentration at 10 min / concentration at 20 min / concentration at 30 min / concentration at 45 min / concentration at 60 min / concentration at 90 min / concentration at 120 min / concentration at 240 min / concentration at 480 min: CD2F1, mouse, in vivo; for AUC as % curcumin (relative percentage): oral 1.8 g/kg curcumin gel; for AUC: oral 1.8 g/kg curcumin gel in 66.7% PEG 600 + 33.3% Cremophor EL. From the text: Extracts of bio-matrices were subjected to HPLC mass spectrometric analysis.

The subject of a further data set is p15^INK4B. Nature of the data set: Quantitative RT-PCR of p15INK4B mRNA in leukemia cells. In kind it is cell-based. To be noted: MV4-11 cells, decitabine 2.5 μM, 72 hours. The method, then: (§1) Cell Cycle and Apoptosis Analysis: MV4-11, ML-1, HL-60 and K562 leukemia cell lines were cultured in RPMI medium (VWR International, Inc., West Chester, Pa.) supplemented with 10% fetal bovine serum (Invitrogen, Carlsbad, Calif.) and 1% (v/v) penicillin/streptomycin (Invitrogen Life Technologies; Carlsbad, Calif.) antibiotic solution at 37° C. in an incubator under 5% CO2 atmosphere. For the ex-vivo studies, mononuclear cells obtained from bone marrow (BM) of patient with AML were prepared by Ficoll-Hypaque (Nygaard) gradient centrifugation and cultured with serum-free expansion medium (SFEM) (StemCell technologies, Vancouver, BC) supplemented with GM-CSF (50 ng/ml), IL-3 (20 ng/ml), IL-6 (20 ng/ml) and SCF ([…]). […] The cell cycle and apoptosis of MV4-11 cells was analyzed on a BD FACS Calibur (Beckman Coulter, Fullerton, Calif.) according to the standard protocol provided by the manufacturer.
Quantitative RT-PCR was used to quantify the mRNA levels of DNMT1, DNMT3a, DNMT3b, p15INK4B and p21. Total RNA was extracted with Trizol reagent (Invitrogen, Carlsbad, Calif.) and reverse transcribed by reverse transcriptase (Invitrogen). Quantitative real-time PCR reactions were performed in triplicate using Taqman gene expression assay (Applied Biosystems) with an ABI prism 7700 detector (Applied Biosystems). The target gene values were normalized to the values of internal control GAPDH or 18 S, and expressed as relative percent change (100×2^(˜ΔΔCt)) over non-treated samples.

In data set [1] the test system is p15^INK4B promoter region. Nature of the data set: DNA methylation analysis of the p15INK4B promoter region (LC-MS/MS). In kind it is cell-based. To be noted: MV4-11 cells, decitabine 2.5 μM, 72 hours. The method, then: Genomic DNA isolated from MV4-11 cells was treated with bisulfite using the Epi methylation Kit (Qiagen, Minneapolis, Minn.) according to the instruction from the manufacturer and followed by PCR amplification as follows. The sequences of p15^INK4B primers were: forward 5′-GGGAGGGTAATGAAGTTGAGTTTA-3′ (SEQ ID NO. 1), and reverse 5′-ACCCTAAAACCCCAACTACCTAAAT-3′ (SEQ ID NO. 2). PCR amplifications were performed as follows: 95° C. for 5.5 min, 55° C. for 30s for 5 cycles, and 52° C. for 30 s for 38 cycles, 72° C. for 30s for 38 cycles, with a final step at 72° C. for 1 min. PCRs were carried out in a 100 μl volume containing 10 μl of buffer (10×), 2 μL of each primer (10 μM), 2 μL of (10 mM) dNTPs, 2 U of Platinum Taq DNA polymerase (Invitrogen, Carlsbad, Calif.), 70.6 μL ddH2O and 10 μL of bisulfite treated DNA in a GeneAmp 9700 thermal cycler (Perkin-Elmer, Norwalk, Conn.). PCR products were purified using QIAquick columns and eluted in water. A 500 ng aliquot of the PCR product was incubated with 25 UM. […] Fully methylated PCR products were purified using the QIAquick PCR Purification kit (Qiagen, Minneapolis, Minn.), according to the manufacturer's instructions and 200 ng of the purified DNA was hydrolyzed and the concentrations of 5mdC and 2dC in the hydrolysate were measured by LC-MS/MS using the conditions as described previously.

A further data set deals with MV4-11 cells. Kind of data set: Cell cycle distribution by flow cytometry. Format: cell-based. Particulars: 2.5 μM decitabine. The method, then:
as §1
For orientation: A flow cytometer gives signals particle by particle.

Setting [2] is: mouse, oral 1.8 g/kg curcumin in 66.7% PEG 600 + 33.3% Cremophor EL, 1440 min.

Turning to `O=C(/C=C/c1ccc(O)cc1)CC(=O)/C=C/c1ccc(O)cc1` [BDMO, bisdesmethoxycurcumin], in “in vivo”, the concentration at 10 min came to 65.7 ng/mL, the concentration at 20 min was determined as 115 ng/mL, the concentration at 30 min is 51.4 ng/mL and the concentration at 45 min was found to be 66.9 ng/mL. For the same compound, in the data set “in vivo”, the concentration at 60 min came to 37.3 ng/mL, the concentration at 90 min amounted to 11.1 ng/mL, the concentration at 120 min turned out to be 15.4 ng/mL and the concentration at 240 min stood at 34.5 ng/mL. In “in vivo”, this compound registered a concentration at 480 min of 10.9 ng/mL.

As for `COc1cc(/C=C/C(O)=C/C(=O)/C=C/c2ccc(O)cc2)ccc1O` [DMO, desmethoxycurcumin], in the data set “in vivo”, the concentration at 10 min was 148 ng/mL, the concentration at 20 min came out at 224 ng/mL, the concentration at 30 min is 108 ng/mL and the concentration at 45 min came to 118 ng/mL. Besides, in the data set “in vivo”, the concentration at 60 min stood at 76.5 ng/mL, the concentration at 90 min was 29.1 ng/mL, the concentration at 120 min is 39.5 ng/mL and the concentration at 240 min was 40.4 ng/mL. The compound also registered a concentration at 480 min in “in vivo” of 15.4 ng/mL.

In the case of `COc1cc(/C=C/C(=O)CC(=O)/C=C/c2ccc(O[C@@H]3O[C@H](C(=O)O)[C@@H](O)[C@H](O)[C@H]3O)c(OC)c2)ccc1O` [GLU, curcumin O-monoglucuronide], the “AUC as % curcumin (relative percentage)” value in the data set “in vivo” (mouse) was 382.0%. The AUC in the data set “in vivo” (mouse) was determined as 1863.2 µM·min. In addition, the plasma level in the data set “in vivo” (setting [2]) worked out at 24.2129 ng/mL; in “in vivo” (same dosing, 10 min) it was 3083.366 ng/mL; in “in vivo” (same dosing, 20 min), 4428.71 ng/mL; in the data set “in vivo” (same dosing, 30 min), 5469.386 ng/mL; in the data set “in vivo” (same dosing, 45 min) it was 2539.161 ng/mL; in “in vivo” (same dosing, 60 min), 2057.704 ng/mL. Also, the plasma level in the data set “in vivo” (same dosing, 90 min) is 1336.072 ng/mL; in the data set “in vivo” (same dosing, 120 min), 1070.25 ng/mL; in “in vivo” (same dosing, 480 min), 716.5084 ng/mL.

On to `COc1cc(CCC(=O)CC(=O)CCc2ccc(O)c(OC)c2)ccc1O` [THC, tetrahydrocurcumin], for which, in “in vivo” (mouse), the “AUC as % curcumin (relative percentage)” value was 7.9%. For the same compound, the AUC in the data set “in vivo” (mouse) turned out to be 38.29 µM·min. Further, the plasma level in “in vivo” (setting [2]) was found to be 2.239 ng/mL; in the data set “in vivo” (same dosing, 10 min) it was 112.6977 ng/mL; in “in vivo” (same dosing, 20 min), 238.2446 ng/mL; in “in vivo” (same dosing, 30 min), 219.0996 ng/mL; in “in vivo” (same dosing, 45 min) it was 62.5 ng/mL; in “in vivo” (same dosing, 60 min), 39.23 ng/mL. For the same compound, the plasma level was found to be 6.038 ng/mL in “in vivo” (same dosing, 90 min); 8.631 ng/mL in the data set “in vivo” (same dosing, 120 min); 8.173 ng/mL in the data set “in vivo” (same dosing, 240 min); 4.672 ng/mL in “in vivo” (same dosing, 480 min).

On to `Nc1ncn([C@H]2C[C@H](O)[C@@H](CO)O2)c(=O)n1` [decitabine, Decitabine], for which the “increase of p15INK4B expression level” value in the data set with p15^INK4B is approximately 4 fold. Besides, in data set [1], the “decrease of p15INK4B promoter methylation level” value is given as approximately 25%. Also, in the data set with MV4-11 cells, the “cell population in G0/G1 phase” value is 49.4%, the “cell population in G2/M phase” value stood at 11.7%, the “cell population in S phase” value was 26.2% and the “cell population in SubG1 phase” value is listed as 13.2%.

For curcumin O-sulfate, in “in vivo” (mouse), the “AUC as % curcumin (relative percentage)” value was 3.3%. In addition, in the data set “in vivo” (mouse), the AUC worked out at 16.2 µM·min. For the same compound, the plasma level stood at 0 ng/mL in “in vivo” (setting [2]); 29.44 ng/mL in “in vivo” (same dosing, 10 min); 54.83 ng/mL in “in vivo” (same dosing, 20 min); 43.06 ng/mL in “in vivo” (same dosing, 30 min); 27.51 ng/mL in “in vivo” (same dosing, 45 min); 18.75 ng/mL in “in vivo” (same dosing, 60 min). Also, the plasma level was determined as 8.637 ng/mL in the data set “in vivo” (same dosing, 90 min); 7.752 ng/mL in “in vivo” (same dosing, 120 min); 9.949 ng/mL in the data set “in vivo” (same dosing, 240 min); 4.05 ng/mL in the data set “in vivo” (same dosing, 480 min).

As usually defined, the AUC is the area under the concentration-time curve, a measure of exposure.
